Columns and labels:
[1] = target: T1, Δ49N-hChoKα (Homo sapiens, UniProt P35790); test: Biochemical kinase inhibition assay (Kinase-Glo luminescent) on Δ49N-hChoKα; settings: recombinant Δ49N-hChoKα 2.2 nM, ATP 5 μM, choline 5 μM, 60 min rt; read-out: ChoKα IC50
T1 construct: cDNA fragment 362-1534, corresponding to aminoacids 50 457; GST (N, cleaved yes); PreScission Protease recognition site (N); made in house; host or cells: Escherichia coli BL21pLysS (DE3)
Protocol: (§1) HumanΔ49ChoKα ([…]Δ49N-hChoKα) cDNA fragment 362-1534, corresponding to aminoacids 50 457 (J. Mol. Biol. 2006, 364, 136-151), and hChoKβ full length (FL), corresponding to aminoacids 2-395 ((PLoS ONE 2009, 4, e7819), were amplified by PCR from human library and cloned, inserting upstream a Prescission Protease recognition site, in pDonor 221 vector, using the Gateway Technology® (Invitrogen). After sequence control, LR reaction was performed in the final expression pGEX 2Tg vector. Both the proteins were expressed in Escherichia coli BL21pLysS (DE3) strain in auto-induction (Kessler) medium in the presence of […] carbenicillin at 25° C. for 16 h. Cells were harvested by centrifugation, the pellet was re-suspended in Lysis buffer (50 mM Tris-HCl pH 7.8, 150 mM NaCl, 10% glycerol, 0.2% CHAPS, 20 mM DTT, Protease Inhibitor Cocktail Tablets from Roche Biochemicals) and lysed by Gaulin homogenizer (Niro Soavi). The lysate was cleared by centrifugation. The supernatant was added to GSH resin and let flow by gravity. The GSH resin was washed with 5 column volume (CV) of cold wash buffer (50 mM Tris-HCl pH 7.8, 150 mM NaCl, 10% glycerol), then with 10 CV of the same buffer containing 2 mM of DTT. Both GST-Δ49N-hChoKα and hChoKβ were subjected to on-column cleavage of the GST tag with Prescission Protease overnight. The eluted cleaved proteins were further purified by ion exchange (ResQ 6 mL chromatography column from GE healthcare) with a gradient from 50 to 500 mM NaCl in 30 CV. The fractions containing […]Δ49N-hChoKα or hChoKβ were pooled, concentrated and gel filtered on a Superdex200 16/60 (GE Healthcare). The final protein concentration was estimated using the Bradford assay. All the samples purified were resolved by SDS-PAGE.
(§2) Biochemical Kinase inhibition Assay on Δ49N-hChoKα and hChoKβFL
(§3) The biochemical activity of compounds against Δ49N-ChoKα and ChoK3 FL were determined using the Kinase-Glo™ Luminescent Kinase Assay (Promega cat. V6711). The assay is based on incubation of the recombinant Δ49N-hChoKα and hChoKβ FL produced in house, 2.2 nM and 30 nM, respectively, with the specific substrates, choline (Sigma-Aldrich-C7017) and ATP, followed by quantification, at the end of reaction time, of the residual not reacted ATP.
(§4) Compounds were 3-fold serially diluted from 10 to 0.0005 μM, then incubated for 60 minutes at room temperature in the presence of ATP 5 μM, choline (5 μM for ChoKα and 20 μM for ChoKβ) and enzyme in a final volume of 19 μL of kinase buffer (50 mM Hepes pH 7.5, 10 mM MgCl2, 1 mM DTT, 3 μM Na3VO4 and 0.2 mg/mL BSA). The final concentration of DMSO was 1%. The assay was run in a robotized format on 384-well plates (Perkin Elmer cat. #6005301).
(§5) At the end of the incubation, an amount of 19 μL of KinaseGlo Reagent was added to each well to stop the reaction and after 30 minutes the luminescence signal was measured using ViewLux reader (Perkin Elmer).
(§6) All information about plate dilution, distribution and raw data of inhibition are tracked via barcode reading and stored in an Oracle DB. The data per each molecule are analyzed by an internally customized version of the SW package “Assay Explorer” which provides sigmoidal fittings of the ten-dilution curves for IC50 determination using a 4 parameter logistic equation: y=bottom+(top−bottom)/(1+10^((log IC50−x)*slope)) where x is the logarithm of the inhibitor concentration, y is the response; y starts at bottom and goes to top with a sigmoid shape.

[2] = target: T2, hChoKβ FL (Homo sapiens, UniProt Q9Y259); test: Biochemical kinase inhibition assay (Kinase-Glo luminescent) on hChoKβ FL; settings: recombinant hChoKβ FL 30 nM, ATP 5 μM, choline 20 μM, 60 min rt; read-out: ChoKβ IC50
T2 construct: hChoKβ full length (FL), corresponding to aminoacids 2-395; GST (N, cleaved yes); PreScission Protease recognition site (N); made in house; host or cells: Escherichia coli BL21pLysS (DE3)
Protocol: as §1, §2, §3, §4, §5, §6

T2 sequence (Q9Y259 2-395): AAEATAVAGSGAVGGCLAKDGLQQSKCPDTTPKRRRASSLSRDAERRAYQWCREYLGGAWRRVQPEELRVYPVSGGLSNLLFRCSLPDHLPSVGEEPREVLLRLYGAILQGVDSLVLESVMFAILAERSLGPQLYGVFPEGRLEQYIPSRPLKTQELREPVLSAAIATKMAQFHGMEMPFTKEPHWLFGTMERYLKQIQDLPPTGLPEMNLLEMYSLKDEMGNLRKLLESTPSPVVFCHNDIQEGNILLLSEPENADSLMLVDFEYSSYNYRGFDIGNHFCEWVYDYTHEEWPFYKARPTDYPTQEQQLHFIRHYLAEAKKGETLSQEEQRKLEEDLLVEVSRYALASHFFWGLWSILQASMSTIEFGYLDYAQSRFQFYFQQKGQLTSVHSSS
T1 sequence (P35790 50-439 isoform P35790-2): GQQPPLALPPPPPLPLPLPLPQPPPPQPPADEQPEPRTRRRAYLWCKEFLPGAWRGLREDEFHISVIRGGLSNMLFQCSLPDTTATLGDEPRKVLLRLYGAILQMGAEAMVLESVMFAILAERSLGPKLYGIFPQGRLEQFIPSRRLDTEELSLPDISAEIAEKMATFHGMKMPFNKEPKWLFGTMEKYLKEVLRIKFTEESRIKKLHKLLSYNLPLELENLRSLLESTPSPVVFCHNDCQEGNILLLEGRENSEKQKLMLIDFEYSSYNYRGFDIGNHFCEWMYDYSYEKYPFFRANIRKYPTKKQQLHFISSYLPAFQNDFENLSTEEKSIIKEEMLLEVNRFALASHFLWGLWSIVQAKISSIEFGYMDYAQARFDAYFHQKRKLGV

SMILES: CC1(C)Cc2cnc(N)nc2-c2[nH]nc(C(=O)Nc3ccc(C(=O)N4CCC(NC(=O)CCCO)CC4)cc3)c21 [compound 53]
- IC50 [1]: 715 nM
- IC50 [2]: 3510 nM

SMILES: CC1(C)Cc2cnc(N)nc2-c2[nH]nc(C(=O)Nc3ccc(C(=O)N4CCC(N5CCOC5=O)CC4)cc3)c21 [compound 56]
- IC50 [1]: 210 nM
- IC50 [2]: 810 nM

SMILES: CC1CCN(C2CCN(C(=O)Cc3csc(NC(=O)c4n[nH]c5c4C(C)(C)Cc4cnc(N)nc4-5)n3)CC2)CC1 [compound 58]
- IC50 [1]: 2 nM
- IC50 [2]: 81 nM

SMILES: CC1(C)Cc2cnc(N)nc2-c2[nH]nc(C(=O)Nc3ccc(C(=O)Nc4ccc(CN5CCCCC5)cc4)cc3)c21 [compound 59]
- IC50 [1]: 32 nM
- IC50 [2]: 734 nM

SMILES: CC1(C)Cc2cnc(N)nc2-c2[nH]nc(C(=O)Nc3nccs3)c21 [compound 61]
- IC50 [1]: 241 nM
- IC50 [2]: 2630 nM

SMILES: CC1(C)Cc2cnc(N)nc2-c2[nH]nc(C(=O)Nc3nc4ccccc4s3)c21 [compound 62]
- IC50 [1]: 85 nM
- IC50 [2]: 465 nM

SMILES: COc1ccc2nc(NC(=O)c3n[nH]c4c3C(C)(C)Cc3cnc(N)nc3-4)sc2c1 [compound 63]
- IC50 [1]: 26 nM
- IC50 [2]: 447 nM

SMILES: CC1(C)Cc2cnc(N)nc2-c2[nH]nc(C(=O)Nc3nc4ccc(Cl)cc4s3)c21 [compound 64]
- IC50 [1]: 306 nM
- IC50 [2]: 4920 nM

SMILES: Cc1cnc(NC(=O)c2n[nH]c3c2C(C)(C)Cc2cnc(N)nc2-3)s1 [compound 65]
- IC50 [1]: 139 nM
- IC50 [2]: 1610 nM

SMILES: CC1(C)Cc2cnc(N)nc2-c2[nH]nc(C(=O)Nc3ncc(Cl)s3)c21 [compound 66]
- IC50 [1]: 710 nM
- IC50 [2]: 5810 nM

SMILES: CC1(C)Cc2cnc(N)nc2-c2[nH]nc(C(=O)Nc3nc(C(=O)O)cs3)c21 [compound 67]
- IC50 [1]: 81 nM
- IC50 [2]: 703 nM

SMILES: CC1(C)Cc2cnc(N)nc2-c2[nH]nc(C(=O)Nc3nc(C(=O)NC4CCCCC4)cs3)c21 [compound 68]
- IC50 [1]: 161 nM
- IC50 [2]: > 10000 nM

SMILES: CN1CCC(NC(=O)c2csc(NC(=O)c3n[nH]c4c3C(C)(C)Cc3cnc(N)nc3-4)n2)CC1 [compound 69]
- IC50 [1]: 36 nM
- IC50 [2]: 88 nM

SMILES: CC1(C)Cc2cnc(N)nc2-c2[nH]nc(C(=O)Nc3nc(C(=O)N4CCC(N5CCCCC5)CC4)cs3)c21 [compound 70]
- IC50 [1]: 35 nM
- IC50 [2]: 1080 nM

SMILES: CC(C)(C)NC(=O)NC1CCN(C(=O)Cc2csc(NC(=O)c3n[nH]c4c3C(C)(C)Cc3cnc(N)nc3-4)n2)CC1 [compound 71]
- IC50 [1]: 9 nM
- IC50 [2]: 1950 nM

SMILES: CC1(C)Cc2cnc(N)nc2-c2[nH]nc(C(=O)Nc3ncc(CC(=O)O)s3)c21 [compound 72]
- IC50 [1]: 268 nM
- IC50 [2]: 2510 nM

SMILES: CC1(C)Cc2cnc(N)nc2-c2[nH]nc(C(=O)Nc3ncc(CC(=O)NC4CCCCC4)s3)c21 [compound 73]
- IC50 [1]: 138 nM
- IC50 [2]: 604 nM

SMILES: CN1CCC(NC(=O)Cc2cnc(NC(=O)c3n[nH]c4c3C(C)(C)Cc3cnc(N)nc3-4)s2)CC1 [compound 74]
- IC50 [1]: 79 nM
- IC50 [2]: 1350 nM

SMILES: CC1(C)Cc2cnc(N)nc2-c2[nH]nc(C(=O)Nc3ncc(CC(=O)N4CCC(N5CCCCC5)CC4)s3)c21 [compound 75]
- IC50 [1]: 47 nM
- IC50 [2]: 1750 nM

SMILES: Cc1nc(NC(=O)c2n[nH]c3c2C(C)(C)Cc2cnc(N)nc2-3)sc1C(=O)NC1CCCCC1 [compound 77]
- IC50 [1]: 200 nM
- IC50 [2]: 1160 nM

SMILES: Cc1nc(NC(=O)c2n[nH]c3c2C(C)(C)Cc2cnc(N)nc2-3)sc1C(=O)N1CCC(N2CCCCC2)CC1 [compound 78]
- IC50 [1]: 218 nM
- IC50 [2]: 2590 nM

SMILES: Cc1nc(NC(=O)c2n[nH]c3c2C(C)(C)Cc2cnc(N)nc2-3)sc1C(=O)NC1CCN(C)CC1 [compound 79]
- IC50 [1]: 69 nM
- IC50 [2]: 2380 nM

SMILES: CC1CCN(C2CCN(C(=O)Cc3csc(NC(=O)c4nn(C)c5c4C(C)(C)Cc4cnc(N)nc4-5)n3)CC2)CC1 [compound 80]
- IC50 [1]: 5 nM
- IC50 [2]: 3160 nM

SMILES: CCOC(=O)c1cnc(NC(=O)c2n[nH]c3c2C(C)(C)Cc2cnc(N)nc2-3)s1 [compound 81]
- IC50 [1]: 428 nM
- IC50 [2]: 5340 nM

SMILES: CC1(C)Cc2cnc(N)nc2-c2[nH]nc(C(=O)Nc3ncc(C(=O)O)s3)c21 [compound 82]
- IC50 [1]: 300 nM
- IC50 [2]: 1730 nM

SMILES: CC1(C)Cc2cnc(N)nc2-c2[nH]nc(C(=O)Nc3ncc(C(=O)N4CCC(N5CCCCC5)CC4)s3)c21 [compound 84]
- IC50 [1]: 111 nM
- IC50 [2]: 1330 nM

SMILES: CNc1ncc2c(n1)-c1c(c(C(=O)Nc3nc(CC(=O)N4CCC(N5CCC(C)CC5)CC4)cs3)nn1C)C(C)(C)C2 [compound 85]
- IC50 [1]: 52 nM
- IC50 [2]: > 10000 nM

SMILES: CN1CCC(NC(=O)Cc2csc(NC(=O)c3n[nH]c4c3C(C)(C)Cc3cnc(N)nc3-4)n2)CC1 [compound 86]
- IC50 [1]: 57 nM
- IC50 [2]: 1390 nM

SMILES: CC1(C)Cc2cnc(N)nc2-c2[nH]nc(C(=O)Nc3nc(CC(=O)N4CC[C@@H](O)C4)cs3)c21 [compound 87]
- IC50 [1]: 149 nM
- IC50 [2]: > 10000 nM

SMILES: CC1(C)Cc2cnc(N)nc2-c2[nH]nc(C(=O)Nc3nc(CC(=O)N4CC[C@H](O)C4)cs3)c21 [compound 88]
- IC50 [1]: 141 nM
- IC50 [2]: > 10000 nM

SMILES: CN(C)C1CCN(C(=O)Cc2csc(NC(=O)c3n[nH]c4c3C(C)(C)Cc3cnc(N)nc3-4)n2)CC1 [compound 89]
- IC50 [1]: 10 nM
- IC50 [2]: 400 nM

SMILES: CC1(C)Cc2cnc(N)nc2-c2[nH]nc(C(=O)Nc3nc(CC(=O)N4CCC(C(N)=O)CC4)cs3)c21 [compound 90]
- IC50 [1]: 161 nM
- IC50 [2]: > 10000 nM

SMILES: CC1(C)Cc2cnc(N)nc2-c2[nH]nc(C(=O)Nc3nc(CC(=O)N4CCC(CO)CC4)cs3)c21 [compound 91]
- IC50 [1]: 98 nM
- IC50 [2]: > 10000 nM

SMILES: CC1(C)Cc2cnc(N)nc2-c2[nH]nc(C(=O)Nc3nc(CC(=O)N4CCC(O)CC4)cs3)c21 [compound 92]
- IC50 [1]: 228 nM
- IC50 [2]: > 10000 nM

SMILES: CN(C)[C@H]1CCN(C(=O)Cc2csc(NC(=O)c3n[nH]c4c3C(C)(C)Cc3cnc(N)nc3-4)n2)C1 [compound 93]
- IC50 [1]: 12 nM
- IC50 [2]: 761 nM

SMILES: CC1(C)Cc2cnc(N)nc2-c2[nH]nc(C(=O)Nc3nc(CC(N)=O)cs3)c21 [compound 94]
- IC50 [1]: 73 nM
- IC50 [2]: 1420 nM

SMILES: CN(C)CCCNC(=O)Cc1csc(NC(=O)c2n[nH]c3c2C(C)(C)Cc2cnc(N)nc2-3)n1 [compound 95]
- IC50 [1]: 15 nM
- IC50 [2]: 126 nM

SMILES: CCOC(=O)Cc1ccc(NC(=O)c2n[nH]c3c2C(C)(C)Cc2cnc(N)nc2-3)cc1 [compound 96]
- IC50 [1]: 198 nM
- IC50 [2]: 934 nM

SMILES: CC1(C)Cc2cnc(N)nc2-c2[nH]nc(C(=O)Nc3ccc(CC(=O)N4CCC(N5CCCCC5)CC4)cc3)c21 [compound 98]
- IC50 [1]: 57 nM
- IC50 [2]: 1290 nM

SMILES: CC1(C)Cc2cnc(N)nc2-c2[nH]nc(C(=O)Nc3ccc(O)cc3)c21 [compound 105]
- IC50 [1]: 229 nM
- IC50 [2]: 398 nM

SMILES: CC1(C)Cc2cnc(N)nc2-c2[nH]nc(C(=O)Nc3cccc(C4OCCCO4)c3)c21 [compound 106]
- IC50 [1]: 343 nM
- IC50 [2]: 5200 nM

SMILES: CC1(C)Cc2cnc(N)nc2-c2[nH]nc(C(=O)Nc3cccc(C=O)c3)c21 [compound 107]
- IC50 [1]: 737 nM
- IC50 [2]: 2680 nM

SMILES: Cn1nc(C(=O)Nc2nc(CC(=O)N3CCC(N4CCCCC4)CC3)cs2)c2c1-c1nc(N)ncc1CC2(C)C [compound 108]
- IC50 [1]: 5 nM
- IC50 [2]: 3970 nM

— US11117901B2, “Substituted pyrazolo[4,3-h]quinazolines as choline kinase inhibitors” (NERVIANO MEDICAL SCIENCES S.R.L., priority 2017, dated 2021)
